Here are results for one molecule from patent US10722478B2, “Methods and compositions for treating fatigue associated with disordered sleep using very low dose cyclobenzaprine” (Tonix Pharma Holdings Limited, priority 2010, dated 2020).

One test deals with FM patients. As to conditions: response threshold CAPA2+A3(Norm)≤33%; ITT, LOCF; vs. 33% with placebo, p=0.019.
Test [1] deals with person with traumatic brain injury. As to conditions: 5 mg at bedtime; within three weeks. On the procedure: A person survived a serious motor vehicle accident with closed head trauma. They underwent six months of physical rehabilitation. […] Because of the spasticity, the neurologist recommended six months of additional physical rehabilitation. […], characterized by both difficulty falling asleep and early-morning awakening. Their neurologist prescribed cyclobenzaprine at a dose of 5 mg at bedtime.

A further test deals with fibromyalgia patients. Conditions: 10 to 40 mg over a 12-week period; cited from earlier work.
The subject of test [2] is person diagnosed with multiple sclerosis. Conditions: 2 mg then 4 mg at bedtime. The protocol: A person was diagnosed with multiple sclerosis three years ago. […] However, they have noted that throughout the day they have very low energy levels. Their capacity for physical and mental work has declined to the point where they are unable to function at work. They report getting 6 to 8 hours of sleep each night but feels unrefreshed in the morning. […] They began taking cyclobenzaprine initially at a dose of 2 mg at bedtime. Their doctor increased the dose to 4 mg at bedtime. […] Their doctor asks them to assess their level of fatigue on a scale of 1 to 10 before and after cyclobenzaprine treatment.

Protocol for FM patients: Therefore, an analysis of sleep EEC CAP was performed that measured subtypes CAP A1, CAP A2, and CAP A3 and Total CAP (or CAP A1+A2+A3). Subtype CAP A1 is associated with sleep maintenance or least sleep instability, and subtypes CAP A2 and A3 are associated with moderate to prominent increases in sleep instability.
Because CAP A2 and A3 are most closely associated with sleep instability^26,27, the sum of CAPA2+CAPA3 rates (CAPA2+A3) was used as an indicator of disordered sleep. CAPA2+A3 was normalized (CAPA2+A3(Norm)) by dividing CAPA2+A3 by the total CAP rate (CAPtotal=CAPA1+CAPA2+CAPA3 rates=CAPA1+A2+A3) and expressed as a percentage. Therefore, CAPA2+A3(Norm)=100*CAPA2+A3/CAPA1+A2+A3 and this reflects the percentage of total CAP that is associated with sleep instability.
To determine whether patients experienced nights with a potential CAP response to treatment, it was necessary to determine an empirical threshold below which CAPA2+A3(Norm) values reflect a night of relatively stable sleep for this population. To determine a threshold for CAPA2+A3(Norm) that could be informative for a potential treatment response, the study CAP data were then evaluated by considering a range of cutoff values for CAPA2+A3(Norm) from ≤10% to ≤50%.
Data were coded such that improvements were positive.

As to `CN(C)CCC=C1c2ccccc2C=Cc2ccccc21` [cyclobenzaprine, 3-(5H-dibenzo[a,d]cyclohepten-5-ylidene)-N,N-dimethyl-1-propanamine], in the test on FM patients, the “percentage of patients with increased nights of CAP response while on treatment” value was determined as 72%. In test [1], the “level of energy and concentration” value is listed as “markedly better”; the sleep result is “improved substantially”. Further, in the test with fibromyalgia patients, the muscle tightness entry is recorded as “reduction”, the pain score entry is “significantly improved”, the quality of sleep result is listed as “significantly improved” and the “total number of tender points” value is recorded as “reduction”. In test [2] (with each dose), the “level of energy during the day” value is on record as “increased” and the quality of sleep result is given as “improved”. Further, in test [2] (before treatment 9/10), the “level of fatigue on a scale of 1 to 10 after treatment” value was 3/10.
